Measurements: patent US5952328A, “Benzothiazo and related heterocyclic group-containing cysteine and serine protease inhibitors” (Cephalon, Inc., priority 1997, dated 1999)

These compounds were tested against T1, Calpain I (Homo sapiens, UniProt P07384) (assay: Inhibition of calpain I activity (Succ-Leu-Tyr-MNA substrate hydrolysis, fluorescence)). Conditions: Table II; calpain I, 0.2 mM Succ-Leu-Tyr-MNA, pH 7.5; * mixture of diastereomers, a,b single diastereomers; read-out: IC50.
T1 construct: made in house
T1 sequence (P07384 1-714): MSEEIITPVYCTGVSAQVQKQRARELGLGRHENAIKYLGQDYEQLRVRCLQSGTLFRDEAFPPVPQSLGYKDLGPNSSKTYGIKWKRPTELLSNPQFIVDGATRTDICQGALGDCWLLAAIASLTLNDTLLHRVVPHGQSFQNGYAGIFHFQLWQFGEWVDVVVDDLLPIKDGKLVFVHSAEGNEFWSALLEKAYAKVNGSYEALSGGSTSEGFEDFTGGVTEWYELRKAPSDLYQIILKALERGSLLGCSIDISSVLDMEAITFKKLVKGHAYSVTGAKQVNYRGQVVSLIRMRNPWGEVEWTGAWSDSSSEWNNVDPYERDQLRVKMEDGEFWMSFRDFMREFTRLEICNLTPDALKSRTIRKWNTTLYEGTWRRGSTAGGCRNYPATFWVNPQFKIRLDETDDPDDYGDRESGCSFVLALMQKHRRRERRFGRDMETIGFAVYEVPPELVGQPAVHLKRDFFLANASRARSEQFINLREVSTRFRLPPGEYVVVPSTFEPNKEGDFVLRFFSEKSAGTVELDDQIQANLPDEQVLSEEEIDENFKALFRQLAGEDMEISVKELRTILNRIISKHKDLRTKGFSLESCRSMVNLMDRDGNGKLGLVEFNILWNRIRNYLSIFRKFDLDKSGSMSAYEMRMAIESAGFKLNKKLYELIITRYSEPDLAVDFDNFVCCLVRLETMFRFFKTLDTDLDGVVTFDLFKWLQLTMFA
T1 sequence (P04632 1-268 partner): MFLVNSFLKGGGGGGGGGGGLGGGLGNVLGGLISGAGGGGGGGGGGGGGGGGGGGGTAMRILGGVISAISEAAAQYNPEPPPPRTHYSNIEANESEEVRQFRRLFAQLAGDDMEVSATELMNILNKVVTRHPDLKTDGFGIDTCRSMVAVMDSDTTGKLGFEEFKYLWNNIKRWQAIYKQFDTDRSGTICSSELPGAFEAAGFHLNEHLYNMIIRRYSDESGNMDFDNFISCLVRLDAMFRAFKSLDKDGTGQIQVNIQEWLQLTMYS
Assay type: biochemical
Protocol: To evaluate inhibitory activity, stock solutions (40 times concentrated) of each compound to be tested were prepared in 100% anhydrous DMSO and […] of each inhibitor preparation were aliquoted into each of three wells of a 96-well plate. Calpain I, prepared by a modification of the method of W. J. Lee et al. (Biochem. […] To start the reaction, […] of 50 mM CaCl2 in assay buffer was added to each of the wells of the plate, excepting three, which were used as background signal baseline controls. Substrate hydrolysis was monitored every 5 minutes for a total of 30 minutes using a Fluoroskan II fluorescence plate reader. […] Inhibition of calpain I activity was calculated as the percent decrease in the rate of substrate hydrolysis in the presence of inhibitor relative to the rate in its absence. Comparison between the inhibited and control rates was made within the linear range for substrate hydrolysis. For screening, compounds were tested at […]. […] The results were plotted as percent inhibition versus log inhibitor concentration, and the IC50 was calculated from linear regression of the data.

Structure (SMILES) | IC50 [nM]
COc1cc2c(cc1OC)S(=O)(=O)N(C)C(C(=O)N[C@H](C=O)Cc1ccccc1)C2 (stereo partly drawn) [Cpd 12e, N-(3,4-Dihydro-6,7-dimethoxy-2-methyl-2H-1,2-benzothiazine-3-carbonyl)-L-phenylalaninal 1,1-dioxide] | 200
COc1cc2c(cc1OC)S(=O)(=O)N(C)C(C(=O)N[C@H](C=O)Cc1ccccc1)C2 (stereo partly drawn) [Cpd 12f, N-(3,4-Dihydro-6,7-dimethoxy-2-methyl-2H-1,2-benzothiazine-3-carbonyl)-L-phenylalaninal 1,1-dioxide] | 38
CN1C(C(=O)N[C@H](C=O)CCCCNS(=O)(=O)c2ccccc2)Cc2cc3c(cc2S1(=O)=O)OCCO3 (stereo partly drawn) [Cpd 12y, Nα -(3,4-Dihydro-6,7-ethylenedioxy-2-methyl-2H-1,2-benzothiazine-3-carbonyl)-L-Nε -(benzenesulfonyl)lysinal 1,1-dioxide] | 107
COc1cc2c(cc1OC)S(=O)(=O)N(Cc1ccccc1)C(C(=O)N[C@H](C=O)Cc1ccccc1)C2 (stereo partly drawn) [Cpd 12h, N-(2-Benzyl-3,4-dihydro-6,7-dimethoxy-2H-1,2-benzothiazine-3-carbonyl)-L-phenylalaninal 1,1-dioxide] | 150
CN1C(C(=O)N[C@H](C=O)Cc2ccccc2)Cc2cc(N3CCOCC3)ccc2S1(=O)=O (stereo partly drawn) [Cpd 12aa, N-(3,4-Dihydro-6-(4-morpholino)-2-methyl-2H-1,2-benzothiazine-3-carbonyl)-L-phenylalaninal 1,1-dioxide] | 30
CCNC(=O)C(=O)[C@H](Cc1ccccc1)NC(=O)C1Cc2cc(Cl)ccc2S(=O)(=O)N1C (stereo partly drawn) [Cpd 14A, N-Ethyl-3-(6-chloro-3,4-dihydro-2-methyl-2H-1,2-benzothiazine-3-carboxamido)-2-oxo-3-(S)-benzylpropanamide 1,1-dioxide] | ~1000
COc1cc2c(cc1OC)S(=O)(=O)OC(C(=O)N[C@H](C=O)CC(C)C)C2 (stereo partly drawn) [Cpd 12a, N-(3,4-Dihydro-6,7-dimethoxy-2,1-benzoxathiin-3-carbonyl)-L-leucinal 1,1-dioxide] | 130
CN1C(C(=O)N[C@H](C=O)Cc2ccccc2)Cc2cc3c(cc2S1(=O)=O)OCCO3 (stereo partly drawn) [Cpd 12r, N-(3,4-Dihydro-6,7-ethylenedioxy-2-methyl-2H-1,2-benzothiazine-3-carbonyl)-L-phenylalaninal 1,1-dioxide] | 24
COc1cc2c(cc1OC)S(=O)(=O)OC(C(=O)N[C@H](C=O)Cc1ccccc1)C2 (stereo partly drawn) [Cpd 12b, N-(3,4-Dihydro-6,7-dimethoxy-2,1-benzoxathiin-3-carbonyl)-L-phenylalaninal 1,1-dioxide] | 51
CN1C(C(=O)N[C@H](C=O)Cc2ccccc2)Cc2ccccc2S1(=O)=O (stereo partly drawn) [Cpd 12i, N-(3,4-Dihydro-2-methyl-2H-1,2-benzothiazine-3-carbonyl)-L-phenylalaninal 1,1-dioxide] | 28
COc1cc2c(cc1OC)S(=O)(=O)N(Cc1ccccc1)C(C(=O)N[C@H](C=O)Cc1ccccc1)C2 (stereo partly drawn) [Cpd 12g, N-(2-Benzyl-3,4-dihydro-6,7-dimnethoxy-2H-1,2-benzothiazine-3-carbonyl)-L-phenylalaninal 1,1-dioxide] | ~1000

Same assay, conditions: Table III; calpain I, 0.2 mM Succ-Leu-Tyr-MNA, pH 7.5; * mixture of diastereomers, a,b single diastereomers; read-out: IC50

Structure (SMILES) | IC50 [nM]
CCNC(=O)C(=O)[C@H](Cc1ccccc1)NC(=O)C1Cc2cc3c(cc2S(=O)(=O)N1CC)OCCO3 (some centres unmarked) [Cpd 14D] | 340
CCN1C(C(=O)N[C@@H](Cc2ccccc2)C(=O)C(=O)NCCNS(=O)(=O)c2ccc([N+](=O)[O-])cc2)Cc2cc3c(cc2S1(=O)=O)OCCO3 (stereo partly drawn) [Cpd 14T, 3-((3,4-Dihydro-6,7-ethylenedioxy-2-ethyl-2H-1,2-benzothiazine-3-carbonyl)amino)-3-(S)-benzyl-2-oxo-N-(2-(4-nitrobenzenesulfonylamino)ethyl)propanamide 1,1-dioxide] | 47
CCN1C(C(=O)N[C@@H](Cc2ccccc2)C(=O)C(=O)NCCNS(C)(=O)=O)Cc2cc3c(cc2S1(=O)=O)OCCO3 (some centres unmarked) [Cpd 14S] | 89
O=C(NCCNS(=O)(=O)c1ccccc1)C(=O)[C@H](Cc1ccccc1)NC(=O)C1Cc2cc3c(cc2S(=O)(=O)N1)OCCO3 (stereo partly drawn) [Cpd 14AE, N-(2-(Benzenesulfonylamino)ethyl)-3-(3,4-Dihydro-6,7-ethylenedioxy-2H-1,2-benzothiazine-3-carboxamido)-2-oxo-3-(S)-benzylpropanamide 1,1-dioxide] | 76
CCN1C(C(=O)N[C@@H](Cc2ccccc2)C(=O)C(=O)NCCCNS(=O)(=O)c2ccc(F)cc2)Cc2cc3c(cc2S1(=O)=O)OCCO3 (stereo partly drawn) [Cpd 14Z, 3-((3,4-Dihydro-6,7-ethylenedioxy-2-ethyl-2H-1,2-benzothiazine-3-carbonyl)amino)-3-(S)-benzyl-2-oxo-N-(3-(4-fluorobenzenesulfonylamino)propyl)propanamide 1,1-dioxide] | 50

Same assay, conditions: Table IV; calpain I, 0.2 mM Succ-Leu-Tyr-MNA, pH 7.5; read-out: IC50

Structure (SMILES) | IC50 [nM]
CCCCNC(=O)C(=O)[C@H](Cc1ccccc1)NC(=O)C1=Cc2cc3c(cc2S(=O)(=O)N1C)OCCO3 [Cpd 27e, 3-((6,7-Ethylenedioxy-2-methyl-2H-1,2-benzothiazine-3-carbonyl)amino)-3-(S)-benzyl-2-oxo-N-butylpropanamide 1,1-dioxide] | 210
CCCCNC(=O)C(=O)[C@H](Cc1ccccc1)NC(=O)C1=C(OC)c2ccccc2S(=O)(=O)N1C [Cpd 27g, 3-((4-Methoxy-2-methyl-2H-1,2-benzothiazine-3-carbonyl)amino)-3-(S)-benzyl-2-oxo-N-butylpropanamide 1,1-dioxide] | 900
COC1=C(C(=O)N[C@H](C=O)Cc2ccccc2)N(C)S(=O)(=O)c2ccccc21 [Cpd 26d, N-(2-Methyl-4-methoxy-2H-1,2-benzothiazine-3-carbonyl)-L-phenylalaninal 1,1-dioxide] | 37
CCCCNC(=O)C(=O)[C@H](Cc1ccccc1)NC(=O)C1=C(O)c2ccccc2S(=O)(=O)N1C [Cpd 27h, 3-((4-Hydroxy-2-methyl-2H-1,2-benzothiazine-3-carbonyl)amino)-3-(S)-benzyl-2-oxo-N-butylpropanamide 1,1-dioxide] | ~10000

Same assay, conditions: Table V; calpain I, 0.2 mM Succ-Leu-Tyr-MNA, pH 7.5; * mixture of diastereomers, a,b single diastereomers; read-out: IC50

Structure (SMILES) | IC50 [nM]
CCN1C(C(=O)N[C@H](C=O)Cc2ccccc2)N(Cc2ccccc2)c2ccccc2S1(=O)=O (single isomer, unassigned) [Cpd 35c, N-(3,4-Dihydro-2-ethyl-4-benzyl-2H-1,2,4-benzothiadiazine-3-carbonyl)-L-phenylalaninal 1,1-dioxide] | ~10000

Same assay, conditions: Table VI; calpain I, 0.2 mM Succ-Leu-Tyr-MNA, pH 7.5; read-out: IC50

Structure (SMILES) | IC50 [nM]
O=C[C@H](Cc1ccccc1)NC(=O)C1=Nc2ccccc2S(=O)(=O)N1 [Cpd 42a, N-(2H-1,2,4-Benzothiadiazine-3-carbonyl)-L-phenylalaninal 1,1-dioxide] | 83
O=C[C@H](Cc1ccccc1)NC(=O)C1=Nc2cc3c(cc2S(=O)(=O)N1)OCCO3 [Cpd 42b, N-(2H-6,7-Ethylenedioxy-1,2,4-benzothiadiazine-3-carbonyl)-L-phenylalaninal1,1-dioxide] | 28
CCCCNC(=O)C(=O)[C@H](Cc1ccccc1)NC(=O)C1=Nc2cc3c(cc2S(=O)(=O)N1)OCCO3 [Cpd 42d, 3-((2H-6,7-Ethylenedioxy-1,2,4-benzothiadiazine-3-carbonyl)amino)-3-(S)-benzyl-2-oxo-N-butylpropanamide 1,1-dioxide] | ~10000

Same assay, conditions: Table VII; calpain I, 0.2 mM Succ-Leu-Tyr-MNA, pH 7.5; a,b single diastereomers; read-out: IC50

Structure (SMILES) | IC50 [nM]
O=C[C@H](Cc1ccccc1)NC(=O)C1Cc2ccccc2C(=O)N1 (single isomer, unassigned) [Cpd 50b, N-(1-Oxo-1,2,3,4-tetrahydroisoquinoline-3-carbonyl)-L-phenylalaninal] | ~5000
CN1C(=O)c2ccccc2CC1C(=O)N[C@H](C=O)Cc1ccccc1 (single isomer, unassigned) [Cpd 50c, N-(1-Oxo-2-methyl-1,2,3,4-tetrahydroisoquinoline-3-carbonyl)-L-phenylalaninal] | ~1000
